How the values were obtained:
[1] = Cytotoxicity against human U2OS cells assessed as cell growth inhibition at 10 uM after 24 hrs relative to control; format: cell-based
[2] = Cytotoxicity against human U2OS cells assessed as cell growth inhibition at 10 uM after 48 hrs relative to control; format: cell-based
[3] = Cytotoxicity against human HEK293 cells assessed as cell growth inhibition at 10 uM after 24 hrs relative to control; format: cell-based
[4] = Cytotoxicity against human HEK293 cells assessed as cell growth inhibition at 10 uM after 48 hrs relative to control; format: cell-based
[5] = Cytotoxicity against human hTERT cells assessed as cell growth inhibition at 10 uM after 24 hrs relative to control; format: cell-based, hTERT-BJ
[6] = Cytotoxicity against human hTERT cells assessed as cell growth inhibition at 10 uM after 48 hrs relative to control; format: cell-based, hTERT-BJ
[7] = Cytotoxicity against human MCF7 cells assessed as cell growth inhibition at 10 uM after 24 hrs relative to control; format: cell-based
[8] = Cytotoxicity against human MCF7 cells assessed as cell growth inhibition at 10 uM after 48 hrs relative to control; format: cell-based
[9] = target: T1, CYP1A2 (Homo sapiens, UniProt P05177); test: Inhibition of CYP1A2 (unknown origin) at 10 uM relative to control; format: ADME
T1 sequence (P05177 whole entry): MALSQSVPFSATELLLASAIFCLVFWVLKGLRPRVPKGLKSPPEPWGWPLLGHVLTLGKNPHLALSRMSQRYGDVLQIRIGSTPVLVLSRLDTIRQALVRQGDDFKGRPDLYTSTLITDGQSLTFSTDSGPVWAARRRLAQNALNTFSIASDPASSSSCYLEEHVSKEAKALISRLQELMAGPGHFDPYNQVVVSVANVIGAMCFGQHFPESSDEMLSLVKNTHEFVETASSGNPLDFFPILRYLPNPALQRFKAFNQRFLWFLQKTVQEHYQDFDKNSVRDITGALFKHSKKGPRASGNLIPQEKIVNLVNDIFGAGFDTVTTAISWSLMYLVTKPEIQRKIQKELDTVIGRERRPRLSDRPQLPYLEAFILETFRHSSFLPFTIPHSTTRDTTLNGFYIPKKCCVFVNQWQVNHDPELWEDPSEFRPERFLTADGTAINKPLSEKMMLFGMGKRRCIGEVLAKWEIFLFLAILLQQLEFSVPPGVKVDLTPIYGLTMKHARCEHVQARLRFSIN

[10] = target: CYP2C9 (Homo sapiens, UniProt P11712); test: Inhibition of CYP2C9 (unknown origin) at 10 uM relative to control; format: ADME
[11] = target: CYP2C19 (Homo sapiens, UniProt P33261); test: Inhibition of CYP2C19 (unknown origin) at 10 uM relative to control; format: ADME
[12] = target: CYP2D6 (Homo sapiens, UniProt P10635); test: Inhibition of CYP2D6 (unknown origin) at 10 uM relative to control; format: ADME
[13] = target: CYP3A4 (Homo sapiens, UniProt P08684); test: Inhibition of CYP3A4 (unknown origin) at 10 uM relative to control; format: ADME
[14] = target: hERG (KCNH2) (Homo sapiens, UniProt Q12809); test: Inhibition of human ERG at 10 uM by fluorescence polarization assay relative to control
[15] = target: T2, SIRT7 (Homo sapiens, UniProt Q9NRC8); test: Inhibition of SIRT7 (unknown origin) at 10 uM relative to control
T2 sequence (Q9NRC8 whole entry): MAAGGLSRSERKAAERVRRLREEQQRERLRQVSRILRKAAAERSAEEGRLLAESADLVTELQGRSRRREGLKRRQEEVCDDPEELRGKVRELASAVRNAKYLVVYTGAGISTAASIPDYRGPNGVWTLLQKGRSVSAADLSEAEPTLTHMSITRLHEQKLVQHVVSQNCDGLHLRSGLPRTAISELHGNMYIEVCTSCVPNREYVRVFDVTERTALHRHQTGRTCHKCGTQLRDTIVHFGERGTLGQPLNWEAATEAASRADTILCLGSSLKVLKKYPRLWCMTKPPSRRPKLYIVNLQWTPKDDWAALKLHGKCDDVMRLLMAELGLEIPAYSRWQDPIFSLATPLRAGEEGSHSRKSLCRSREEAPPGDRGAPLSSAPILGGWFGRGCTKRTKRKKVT

[16] = target: HDAC4 (Homo sapiens, UniProt P56524); test: Inhibition of HDAC4 (unknown origin) at 10 uM relative to control
[17] = target: T3, HDAC6 (Homo sapiens, UniProt Q9UBN7); test: Inhibition of HDAC6 (unknown origin) at 10 uM relative to control
T3 sequence (Q9UBN7 whole entry): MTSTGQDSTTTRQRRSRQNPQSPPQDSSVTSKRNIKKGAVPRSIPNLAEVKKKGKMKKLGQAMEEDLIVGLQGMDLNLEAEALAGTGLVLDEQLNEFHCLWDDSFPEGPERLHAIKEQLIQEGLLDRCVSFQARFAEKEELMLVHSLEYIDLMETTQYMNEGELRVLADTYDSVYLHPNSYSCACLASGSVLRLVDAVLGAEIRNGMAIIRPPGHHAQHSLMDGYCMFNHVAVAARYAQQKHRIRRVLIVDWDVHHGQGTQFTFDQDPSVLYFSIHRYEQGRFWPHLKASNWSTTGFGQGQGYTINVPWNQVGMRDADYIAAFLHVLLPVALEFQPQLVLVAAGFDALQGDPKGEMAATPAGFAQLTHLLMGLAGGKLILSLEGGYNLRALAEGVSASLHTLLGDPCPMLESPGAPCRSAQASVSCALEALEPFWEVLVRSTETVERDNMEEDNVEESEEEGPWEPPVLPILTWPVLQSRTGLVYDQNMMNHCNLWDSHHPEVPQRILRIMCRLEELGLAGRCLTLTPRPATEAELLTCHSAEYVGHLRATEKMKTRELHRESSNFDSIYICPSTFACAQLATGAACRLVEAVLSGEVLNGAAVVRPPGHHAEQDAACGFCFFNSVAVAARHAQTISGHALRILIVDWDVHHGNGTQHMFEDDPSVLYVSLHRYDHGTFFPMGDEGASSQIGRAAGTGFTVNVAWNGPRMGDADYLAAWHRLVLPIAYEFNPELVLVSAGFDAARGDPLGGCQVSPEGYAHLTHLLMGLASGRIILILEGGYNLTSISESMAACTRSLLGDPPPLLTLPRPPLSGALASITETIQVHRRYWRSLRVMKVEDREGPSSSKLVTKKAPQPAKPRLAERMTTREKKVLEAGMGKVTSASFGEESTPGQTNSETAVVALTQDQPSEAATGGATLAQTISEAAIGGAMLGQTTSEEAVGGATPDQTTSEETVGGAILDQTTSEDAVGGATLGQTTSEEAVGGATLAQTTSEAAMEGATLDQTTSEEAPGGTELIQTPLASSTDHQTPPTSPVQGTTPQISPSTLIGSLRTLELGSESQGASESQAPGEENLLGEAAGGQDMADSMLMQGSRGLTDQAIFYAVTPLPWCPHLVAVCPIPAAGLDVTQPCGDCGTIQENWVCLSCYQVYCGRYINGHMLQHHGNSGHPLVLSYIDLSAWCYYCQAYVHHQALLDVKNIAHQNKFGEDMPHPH

[18] = target: T4, HDAC8 (Homo sapiens, UniProt Q9BY41); test: Inhibition of HDAC8 (unknown origin) at 10 uM relative to control
T4 sequence (Q9BY41 whole entry): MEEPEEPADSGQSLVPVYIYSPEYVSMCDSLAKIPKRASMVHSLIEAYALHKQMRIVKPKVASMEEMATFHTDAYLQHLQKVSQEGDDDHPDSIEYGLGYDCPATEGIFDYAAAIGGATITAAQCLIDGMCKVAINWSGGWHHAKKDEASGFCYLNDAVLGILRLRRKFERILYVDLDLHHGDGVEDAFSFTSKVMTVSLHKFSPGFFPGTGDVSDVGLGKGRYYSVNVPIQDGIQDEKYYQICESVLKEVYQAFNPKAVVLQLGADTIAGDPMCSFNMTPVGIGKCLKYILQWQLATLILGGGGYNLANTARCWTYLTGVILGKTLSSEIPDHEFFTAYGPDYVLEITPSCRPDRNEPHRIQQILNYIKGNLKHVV

[19] = target: HDAC9 (Homo sapiens, UniProt Q9UKV0); test: Inhibition of HDAC9 (unknown origin) at 10 uM relative to control
[20] = target: 3',5'-cyclic-AMP phosphodiesterase 4C (Homo sapiens) (UniProt Q08493); test: Inhibition of PDE4C1 (unknown origin) at 10 uM relative to control
[21] = target: Aurora B (Homo sapiens, UniProt Q96GD4); test: Inhibition of Aurora B (unknown origin) at 10 uM relative to control
Aurora B, sequence (Q96GD4 whole entry): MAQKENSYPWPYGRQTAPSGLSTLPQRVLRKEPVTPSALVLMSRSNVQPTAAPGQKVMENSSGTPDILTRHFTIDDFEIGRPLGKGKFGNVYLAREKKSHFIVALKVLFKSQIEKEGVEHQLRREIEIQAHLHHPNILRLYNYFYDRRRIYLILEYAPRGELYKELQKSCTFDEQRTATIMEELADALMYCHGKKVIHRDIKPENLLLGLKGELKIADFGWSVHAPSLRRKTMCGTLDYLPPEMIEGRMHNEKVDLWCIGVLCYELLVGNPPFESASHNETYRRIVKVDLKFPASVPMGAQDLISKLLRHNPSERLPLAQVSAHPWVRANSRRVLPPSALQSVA

CYP2D6, sequence (P10635 whole entry): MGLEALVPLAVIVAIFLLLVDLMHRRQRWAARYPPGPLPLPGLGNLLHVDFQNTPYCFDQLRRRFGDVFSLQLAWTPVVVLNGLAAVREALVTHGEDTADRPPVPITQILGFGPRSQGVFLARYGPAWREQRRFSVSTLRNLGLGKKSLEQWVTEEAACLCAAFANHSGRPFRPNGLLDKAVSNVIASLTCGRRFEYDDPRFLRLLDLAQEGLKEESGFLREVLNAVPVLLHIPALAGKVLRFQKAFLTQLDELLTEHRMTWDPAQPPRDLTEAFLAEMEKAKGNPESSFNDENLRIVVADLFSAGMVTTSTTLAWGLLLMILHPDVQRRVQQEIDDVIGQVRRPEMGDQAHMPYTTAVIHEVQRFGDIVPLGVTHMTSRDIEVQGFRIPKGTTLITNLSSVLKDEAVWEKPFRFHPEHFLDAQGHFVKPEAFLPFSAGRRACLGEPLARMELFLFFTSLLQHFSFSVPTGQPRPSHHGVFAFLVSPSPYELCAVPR
3',5'-cyclic-AMP phosphodiesterase 4C (Homo sapiens), sequence (Q08493 whole entry): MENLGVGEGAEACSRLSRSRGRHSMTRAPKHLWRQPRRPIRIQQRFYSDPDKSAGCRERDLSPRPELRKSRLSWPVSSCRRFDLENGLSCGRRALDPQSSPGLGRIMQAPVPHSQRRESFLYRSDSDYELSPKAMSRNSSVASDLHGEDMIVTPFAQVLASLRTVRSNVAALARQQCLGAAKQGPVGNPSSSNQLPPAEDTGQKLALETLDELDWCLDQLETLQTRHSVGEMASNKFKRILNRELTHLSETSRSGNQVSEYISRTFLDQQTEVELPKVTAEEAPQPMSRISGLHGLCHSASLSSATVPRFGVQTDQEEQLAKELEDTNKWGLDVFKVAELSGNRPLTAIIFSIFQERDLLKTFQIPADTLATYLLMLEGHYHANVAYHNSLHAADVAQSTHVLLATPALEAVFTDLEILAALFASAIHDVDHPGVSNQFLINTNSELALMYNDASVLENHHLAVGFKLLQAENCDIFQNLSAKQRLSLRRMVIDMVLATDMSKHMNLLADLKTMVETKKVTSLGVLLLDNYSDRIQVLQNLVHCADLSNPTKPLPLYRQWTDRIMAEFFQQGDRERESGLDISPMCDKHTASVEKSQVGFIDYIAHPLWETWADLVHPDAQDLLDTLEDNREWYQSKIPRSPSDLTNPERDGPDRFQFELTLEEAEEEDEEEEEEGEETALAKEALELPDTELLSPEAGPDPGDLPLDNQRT
HDAC9, sequence (Q9UKV0 whole entry): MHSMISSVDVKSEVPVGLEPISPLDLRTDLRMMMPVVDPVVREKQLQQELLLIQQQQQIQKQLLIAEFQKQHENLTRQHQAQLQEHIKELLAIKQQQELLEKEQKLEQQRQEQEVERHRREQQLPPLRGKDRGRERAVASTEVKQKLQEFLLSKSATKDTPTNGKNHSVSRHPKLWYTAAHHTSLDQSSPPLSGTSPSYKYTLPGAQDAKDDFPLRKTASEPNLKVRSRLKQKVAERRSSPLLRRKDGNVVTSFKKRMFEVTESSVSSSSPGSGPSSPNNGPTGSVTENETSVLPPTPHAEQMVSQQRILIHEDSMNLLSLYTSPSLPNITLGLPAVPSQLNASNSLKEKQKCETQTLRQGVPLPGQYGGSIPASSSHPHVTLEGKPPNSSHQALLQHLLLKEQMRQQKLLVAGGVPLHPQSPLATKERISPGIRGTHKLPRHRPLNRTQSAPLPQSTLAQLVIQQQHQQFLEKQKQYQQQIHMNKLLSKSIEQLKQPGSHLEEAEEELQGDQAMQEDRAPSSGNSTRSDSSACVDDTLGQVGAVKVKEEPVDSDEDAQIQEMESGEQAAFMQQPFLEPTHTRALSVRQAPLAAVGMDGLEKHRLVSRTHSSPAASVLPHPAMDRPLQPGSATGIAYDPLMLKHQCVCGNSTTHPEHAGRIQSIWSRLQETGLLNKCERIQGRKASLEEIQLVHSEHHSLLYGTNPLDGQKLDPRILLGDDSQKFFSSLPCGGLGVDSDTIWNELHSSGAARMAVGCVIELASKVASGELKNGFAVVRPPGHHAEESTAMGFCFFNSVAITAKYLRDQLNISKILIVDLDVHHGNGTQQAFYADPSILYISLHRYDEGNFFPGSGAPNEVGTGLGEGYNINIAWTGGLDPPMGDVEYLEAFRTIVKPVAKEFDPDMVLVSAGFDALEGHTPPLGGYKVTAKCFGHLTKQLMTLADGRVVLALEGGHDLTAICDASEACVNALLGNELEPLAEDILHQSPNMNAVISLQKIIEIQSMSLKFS
HDAC4, sequence (P56524 whole entry): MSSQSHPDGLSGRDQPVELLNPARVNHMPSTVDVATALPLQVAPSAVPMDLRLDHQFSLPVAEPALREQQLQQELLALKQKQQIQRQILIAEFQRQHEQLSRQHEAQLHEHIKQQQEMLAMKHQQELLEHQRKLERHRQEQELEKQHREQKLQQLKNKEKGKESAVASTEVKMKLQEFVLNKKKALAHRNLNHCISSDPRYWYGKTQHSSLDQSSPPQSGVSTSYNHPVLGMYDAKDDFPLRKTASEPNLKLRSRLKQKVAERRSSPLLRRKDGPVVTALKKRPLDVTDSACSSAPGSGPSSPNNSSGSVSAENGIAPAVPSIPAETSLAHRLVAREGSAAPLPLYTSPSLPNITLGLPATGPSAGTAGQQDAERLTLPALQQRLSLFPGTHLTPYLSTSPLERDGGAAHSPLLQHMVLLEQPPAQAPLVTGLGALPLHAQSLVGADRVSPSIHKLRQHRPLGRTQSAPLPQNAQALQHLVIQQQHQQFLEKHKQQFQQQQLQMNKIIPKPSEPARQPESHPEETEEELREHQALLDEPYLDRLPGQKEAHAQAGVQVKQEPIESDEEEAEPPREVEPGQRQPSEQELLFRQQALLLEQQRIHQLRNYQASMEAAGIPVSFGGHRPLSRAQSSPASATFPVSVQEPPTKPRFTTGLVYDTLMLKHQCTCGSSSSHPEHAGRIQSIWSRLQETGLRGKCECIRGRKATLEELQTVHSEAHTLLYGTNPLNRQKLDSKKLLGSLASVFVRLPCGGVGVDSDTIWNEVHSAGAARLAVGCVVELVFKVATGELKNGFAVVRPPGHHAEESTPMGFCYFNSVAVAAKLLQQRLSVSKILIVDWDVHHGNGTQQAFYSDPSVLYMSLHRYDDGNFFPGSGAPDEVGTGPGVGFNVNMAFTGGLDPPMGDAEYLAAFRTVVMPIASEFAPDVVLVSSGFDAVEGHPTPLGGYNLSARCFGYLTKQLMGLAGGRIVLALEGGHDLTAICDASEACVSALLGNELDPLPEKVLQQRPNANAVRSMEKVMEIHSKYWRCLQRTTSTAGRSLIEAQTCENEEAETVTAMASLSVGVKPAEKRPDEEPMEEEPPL
hERG (KCNH2), sequence (Q12809 whole entry): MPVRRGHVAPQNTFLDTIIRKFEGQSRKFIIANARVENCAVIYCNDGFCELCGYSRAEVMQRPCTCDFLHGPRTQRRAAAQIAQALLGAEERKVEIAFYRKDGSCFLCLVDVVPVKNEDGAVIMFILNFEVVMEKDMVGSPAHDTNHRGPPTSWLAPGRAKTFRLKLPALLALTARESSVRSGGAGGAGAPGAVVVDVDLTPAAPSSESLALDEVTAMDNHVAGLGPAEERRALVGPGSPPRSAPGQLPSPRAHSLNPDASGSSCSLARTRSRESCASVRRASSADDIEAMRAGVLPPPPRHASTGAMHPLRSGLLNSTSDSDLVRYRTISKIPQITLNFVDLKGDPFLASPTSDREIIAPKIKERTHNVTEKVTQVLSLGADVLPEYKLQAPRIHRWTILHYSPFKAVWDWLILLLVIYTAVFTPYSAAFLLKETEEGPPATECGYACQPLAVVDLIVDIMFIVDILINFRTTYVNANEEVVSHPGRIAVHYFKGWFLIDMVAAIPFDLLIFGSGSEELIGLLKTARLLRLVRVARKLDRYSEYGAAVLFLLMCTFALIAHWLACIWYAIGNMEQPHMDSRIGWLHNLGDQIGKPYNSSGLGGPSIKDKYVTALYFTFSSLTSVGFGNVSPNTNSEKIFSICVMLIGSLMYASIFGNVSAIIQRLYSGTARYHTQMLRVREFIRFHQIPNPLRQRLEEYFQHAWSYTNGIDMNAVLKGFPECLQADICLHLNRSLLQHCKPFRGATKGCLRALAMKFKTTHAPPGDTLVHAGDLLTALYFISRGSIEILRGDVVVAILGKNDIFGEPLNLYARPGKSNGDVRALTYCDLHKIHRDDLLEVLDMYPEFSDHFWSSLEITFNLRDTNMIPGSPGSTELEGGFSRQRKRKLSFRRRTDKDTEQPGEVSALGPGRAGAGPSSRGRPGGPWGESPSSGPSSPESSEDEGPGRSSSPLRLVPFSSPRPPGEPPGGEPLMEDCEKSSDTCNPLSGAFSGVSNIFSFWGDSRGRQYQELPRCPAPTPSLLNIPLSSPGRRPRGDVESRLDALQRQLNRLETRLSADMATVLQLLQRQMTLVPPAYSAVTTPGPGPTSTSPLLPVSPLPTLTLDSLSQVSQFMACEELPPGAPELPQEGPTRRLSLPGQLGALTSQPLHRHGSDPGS

Row | Structure (SMILES) | inhibition at 10 µM [9] [%] | inhibition at 10 µM [10] [%] | inhibition at 10 µM [11] [%] | inhibition at 10 µM [12] [%] | inhibition at 10 µM [13] [%] | inhibition at 10 µM [15] [%] | inhibition at 10 µM [16] [%] | inhibition at 10 µM [17] [%] | inhibition at 10 µM [18] [%] | inhibition at 10 µM [19] [%] | inhibition [20] [%] | inhibition at 24 h, 10 µM [1] [%] | inhibition at 48 h, 10 µM [2] [%] | inhibition at 24 h, 10 µM [3] [%] | inhibition at 48 h, 10 µM [4] [%] | inhibition at 24 h, 10 µM [5] [%] | inhibition at 48 h, 10 µM [6] [%] | inhibition at 24 h, 10 µM [7] [%] | inhibition at 48 h, 10 µM [8] [%] | inhibition at 10 µM [14] [%] | other results
1 | NCCOc1ccc(Cc2ccc(N)cc2)c(C(F)(F)F)c1 | > 91 | > 91 | > 91 | 51 | 51 | < 50 | < 50 | < 50 | < 50 | < 50 | < 50 | < 50 | < 50 | < 50 | < 50 | < 50 | < 50 | < 50 | < 50 | 51 | inhibition at 10 µM [21]: < 50%
2 | CCNc1ccc(Cc2c(C)cc(OCC(=O)O)cc2C)cc1C(C)C | 51 | > 91 | > 91 | 51 | > 91 | < 50 | < 50 | < 50 | < 50 | < 50 | < 50 | < 50 | < 50 | < 50 | < 50 | < 50 | < 50 | < 50 | < 50 | 51 | inhibition at 10 µM [21]: < 50%
3 | Nc1ccc(Cc2ccc(OCC(=O)O)cc2F)cc1 | < 50 | 51 | < 50 | < 50 | < 50 | < 50 | < 50 | < 50 | < 50 | < 50 | < 50 | < 50 | < 50 | < 50 | < 50 | < 50 | < 50 | < 50 | < 50 | > 91 | inhibition at 10 µM [21]: < 50%

The next lines start with results.

Row | inhibition at 10 µM [9] [%] | inhibition at 10 µM [10] [%] | inhibition at 10 µM [11] [%] | inhibition at 10 µM [12] [%] | inhibition at 10 µM [13] [%] | inhibition at 10 µM [15] [%] | inhibition at 10 µM [16] [%] | inhibition at 10 µM [17] [%] | inhibition at 10 µM [18] [%] | inhibition at 10 µM [19] [%] | inhibition [20] [%] | Structure (SMILES) | inhibition at 24 h, 10 µM [1] [%] | inhibition at 48 h, 10 µM [2] [%] | inhibition at 24 h, 10 µM [3] [%] | inhibition at 48 h, 10 µM [4] [%] | inhibition at 24 h, 10 µM [5] [%] | inhibition at 48 h, 10 µM [6] [%] | inhibition at 24 h, 10 µM [7] [%] | inhibition at 48 h, 10 µM [8] [%] | inhibition at 10 µM [14] [%] | other results
4 | < 50 | < 50 | < 50 | < 50 | < 50 | < 50 | < 50 | < 50 | < 50 | < 50 | < 50 | CC(C)c1cc(Cc2ccc(OCC(=O)O)cc2)ccc1N | < 50 | < 50 | < 50 | < 50 | < 50 | < 50 | < 50 | < 50 | < 40 | inhibition at 10 µM [21]: < 50%
5 | < 50 | < 50 | < 50 | < 50 | < 50 | < 50 | < 50 | < 50 | < 50 | < 50 | < 50 | CC(=O)Nc1ccc(Cc2ccc(OCC(=O)O)cc2)cc1C(C)C | < 50 | < 50 | < 50 | < 50 | < 50 | < 50 | < 50 | < 50 | < 40 | inhibition at 10 µM [21]: < 50%
6 | > 91 | > 91 | > 91 | 51 | > 91 | < 50 | < 50 | < 50 | < 50 | < 50 | < 50 | CCNc1ccc(Cc2ccc(OCC(=O)O)cc2)cc1C(C)C | < 50 | < 50 | < 50 | < 50 | 51 | < 50 | 65 | 51 | > 91 | inhibition at 10 µM [21]: < 50%
